“And” between values parts separate entries of the source, which are not always exact repeats. Equal entries are not always repeated.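 48-hour exposure; five concentrations; linearly interpolated endpoints. Abbreviation: GI50, concentration required for 50% inhibition of growth. TGI denotes the concentration required for complete inhibition of growth.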 A value given as a limit tells only on which side of the number the result lay.

In PubChem BioAssay (NCI) one finds GI50 and TGI data, which are given here for 9 compounds.

What all share (test): growth of human tumour cells (NCI), 48 h
Test [1] concerns U251 CNS.
The test system of test [2] is UACC-62 melanoma.
Test [3] concerns RXF 393 renal.
In test [4] the test system is SR leukemia.
The subject of test [5] is BT-549 breast.
Test [6] concerns DU-145 prostate.
Test [7] relates to ACHN renal.
The subject of test [8] is M14 melanoma.
Test [9] relates to CAKI-1 renal.
Test [10] has as its system NCI-H226 lung.

`CCN(CC)CCN1C(=O)c2c(c3c4cccc(Cl)c4n(C4OC(CO)C(OC)C(O)C4O)c3c3[nH]c4c(Cl)cccc4c23)C1=O` (stereo not drawn): the GI50 in [1] was less than 0.0001 µM; in test [2], 0.000111 µM and < 0.0264 µM and < 0.01 µM; in test [3] it was less than 0.0001 µM; in test [4], less than 0.0001 µM; in test [7], less than 0.0001 µM; in test [8], 0.000565 µM and < 0.0368 µM and < 0.0145 µM. Also, the TGI in test [5] was determined as 1.66 µM; in test [6], 0.0845 µM.
With `COc1cccc(N2C(=N)/C(=C3\Nc4ccccc4S3)CC2=O)c1`, the GI50 was 3.89 µM in [1]; greater than 100 µM in test [2]; 2.61 µM in [3]; 44.9 µM in test [5]; 44.3 µM in test [6]; 8.21 µM in test [9]. The GI50 was 4.93 µM in [7], 38.3 µM in test [10] and greater than 100 µM in test [8]. Moreover, the TGI in [1] was greater than 100 µM; in test [2], greater than 100 µM; in [3] it was 11.1 µM; in test [5], greater than 100 µM; in [6] it was greater than 100 µM; in [9], greater than 100 µM. In addition, the TGI in test [7], in [10] and in [8] was greater than 100 µM throughout.
In the case of `CCCCNC(=O)CC1=C(C)/C(=C/c2[nH]c(-c3ccc[nH]3)cc2OC)N=C1C`, the GI50 in [1] is 2.86 µM; in test [3], 3.29 µM; in [4], 1.87 µM; in test [5], 3.74 µM; in test [6], 4 µM; in test [9], 2.56 µM. Moreover, the GI50 is 2.26 µM in [7], 2.74 µM in [10] and 1.83 µM in test [8]. Further, the TGI in test [1] was 12.1 µM; in [3], 11.6 µM; in test [4], 5.43 µM; in test [5] it was 19.9 µM; in test [6], 16.6 µM; in test [9], 9.3 µM. Also, the TGI in test [7] stood at 5.64 µM; in test [10], 8.77 µM; in [8], 3.91 µM.
As to `COc1cc(C2C=C(C)N=C3SC=C(C)N32)cc(OC)c1OC` (stereo not drawn), the GI50 in test [1] was 0.671 µM; in [2] it was 0.473 µM; in [3], 1.49 µM; in test [4] it was 0.249 µM; in test [5] it was 0.531 µM; in [6], 1.81 µM. Moreover, the GI50 in [7] was 0.618 µM; in test [10], 1.88 µM; in [8], 1.13 µM. Further, the TGI in test [1] was 2.79 µM; in test [2] it was 1.87 µM; in test [3] it was 3.14 µM; in test [4], greater than 100 µM; in test [5], 2.09 µM; in test [6], greater than 100 µM. Besides, the TGI in test [7] is 3.61 µM; in test [10] it was 5.81 µM; in test [8] it was 2.89 µM.
As for `C=CCc1cc(O)ccc1O`, the GI50 in test [1] is 36.4 µM; in test [2], 25.2 µM; in [3], 26.3 µM; in test [4], 9.14 µM; in test [5], 6.16 µM; in test [6], 85 µM. Further, the GI50 is 23.9 µM in [9], 15.1 µM in test [7] and 44.2 µM in test [10]. In addition, the TGI in test [1], in [2], in test [3], in test [4], in test [5] and in test [6] was greater than 100 µM throughout. For the same compound, the results for the TGI in test [9], in [7] and in test [10] were greater than 100 µM, 28.3 µM and greater than 100 µM, respectively.
With `COc1cc(C(=O)/C=C/c2cccnc2Nc2ccc(Cl)cc2)cc(OC)c1OC`, the GI50 in [1] was 1.25 µM; in [2], 1.54 µM; in [3], 1.26 µM; in test [5], 1.5 µM; in [6], 1.63 µM; in [9] it was 1.75 µM. The GI50 is 1.77 µM in test [7], 1.16 µM in [10] and 1.75 µM in [8]. For the same compound, the TGI is 2.54 µM in test [1]; 2.98 µM in test [2]; 2.61 µM in test [3]; 2.85 µM in test [5]; 2.98 µM in [6]; 4.04 µM in test [9]. For the same compound, the TGI in [7] is 3.18 µM; in test [10], 2.45 µM; in test [8] it was 3.22 µM.
As to `NC(=O)NC(=O)Nc1ccc(Br)cc1`, the TGI was greater than 52.3 µM in test [1]; greater than 100 µM in [3]; greater than 100 µM in [4]; greater than 100 µM in [5]; greater than 100 µM in [6]; greater than 35.1 µM in [9]. The TGI in test [7] is greater than 30.3 µM; in test [10], greater than 39.1 µM; in [8] it was greater than 45.1 µM.
Consider `CC(C)(Oc1cccc(N2CCC[C@@H](C(=O)N(Cc3ccc(-c4cn[nH]c4)cc3)C3CC3)C2)c1)C(=O)N1CCNCC1`, for which the GI50 in test [1] is 12.6 µM; in test [3], 1.85 µM; in test [4], 7.87 µM; in test [5] it was 13.3 µM; in [6], 14.5 µM; in test [9], 8.11 µM. In addition, the results for the GI50 in test [7], in test [10] and in [8] were 16.1 µM, 5.43 µM and 14.9 µM, respectively. For the same compound, the TGI was 26.3 µM in test [1]; 8.26 µM in [3]; 28.6 µM in test [4]; 26.6 µM in test [5]; 28 µM in [6]; 21.9 µM in [9]. The TGI came to 29.6 µM in test [7], 21 µM in test [10] and 30.1 µM in test [8].
As to `N#Cc1ncc(-c2ccc(C(F)(F)F)cc2)c(NC2CCCCCC2)n1`, the GI50 was 24.5 µM in test [2]; 5.12 µM in test [3]; 16.6 µM in [4]; 29.1 µM in [5]; 44.8 µM in test [6]; 18.3 µM in [9]. The GI50 in [7] was 24 µM; in test [10], 21.8 µM; in test [8], 38.5 µM. The TGI in test [2], in [3], in [4], in [5], in [6] and in test [9] was greater than 100 µM each time. Moreover, the TGI in test [7], in test [10] and in [8] was greater than 100 µM each time.
